From patent US20240376119A1, “SPIRO COMPOUND AND USE THEREOF” (CSPC Zhongqi Pharmaceutical Technology (Shijiazhuang) Co., …, priority 2021, published 2024)

Key:
[1] = system: human acute myeloid leukemia MV-4-11 cells; experiment: In vitro inhibitory effect on the proliferation of MV-4-11 cells (MTT, 72 h); assay type: cell-based; conditions: MV4-11, 72 hours exposure
Procedure: The human acute myeloid leukemia MV-4-11 cells used in the assay were purchased from Shanghai Institutes for Biological Sciences, Chinese Academy of Sciences. The complete culture medium required for cell culture was IMDM (GIBCO Company), which was supplemented with 10% fetal bovine serum (GIBCO Company). Cells were cultured in a 37° C., 5% CO2 incubator. The reagents used in the assay included dimethyl sulfoxide (purchased from Tianjin Kemiou Chemical Reagent Co., Ltd.), and MTT (Shanghai Topbiochem Co., Ltd., CAS. NO. 298-93-1). The test substance was sealed and stored at 4° C.
Dimethyl sulfoxide was used as the solvent to fully dissolve the test substance and prepare a stock solution with a concentration of 5×10^−2 mol/L. The stock solution was stored at −20° C. A complete culture medium was used as the diluent, and the test substance was diluted to different concentrations in a gradient for later use. 100 µL/well (2×10^4 cells/well) of a suspension of MV-4-11 cells in the complete culture medium was added to a 96-well culture plate. 100 μL/well of the corresponding test substances at different concentrations were added respectively. 8 concentrations were set for each test substance, and 3 duplicate wells were set for each concentration. The plate was cultured in a 37° C., 5% CO2 incubator. 20 μL/well of MTT was added after 72 hours of exposure to the test substances. The plate was cultured for 4 hours in a 37° C., 5% CO2 incubator. The supernatant was discarded, and 150 μL/well of dimethyl sulfoxide was added. The plate contents were oscillated and mixed evenly. The microplate reader was used to detect the OD value at a wavelength of 550 nm. The well only containing the cell suspension without test substance was a control well, and the well only containing the complete culture medium was a blank well. The inhibition rate of the cell growth was calculated with the following formula: • Inhibition rate=(ODcontrol well-ODtest well)/(ODcontrol well-ODblank well)*100%. According to the inhibition rates at each concentration, SPSS software was used to calculate the half inhibitory concentration IC50 value.

[2] = target: SHP2 (Homo sapiens (Human), UniProt Q06124); experiment: Assay for the inhibitory effect on the SHP2 enzyme (DiFMUP substrate, fluorescence); assay type: biochemical; conditions: SHP2 activated with SHP-2 activated peptide; DiFMUP 10 μM; read-out: Enzymatic Effect (IC50 on SHP2)
Procedure: 1× Assay buffer was prepared. A compound to be tested was diluted with DMSO solvent to a stock concentration of 10 mM. The compound to be tested was first diluted to an intermediate concentration of 1000 μM and then further diluted in a 3-fold gradient using DMSO. Therefore, the intermediate gradient dilution concentration of the compound to be tested was: 1000 μM, 3-fold dilution, 11 gradients. 100 nL of each concentration of the compound in the 384-well LDV echo plate was transferred to a new 384-well ELISA plate (assay plate) (corning, Cat #4514) by the Echo550 instrument. The final concentration of the compound to be tested was 10 μM, 3-fold dilution, 11 gradients in duplicate after 10 μL of the reaction reagent was added. The final DMSO concentration was 1%. For both negative and positive control wells, 100 nL DMSO would be transferred.
A mixed liquor of 2× working SHP2 reagent (0.4 nM) and 0.5 μM SHP-2 activated peptide (BPS bioscience #79319-2) was prepared with 1× enzyme buffer. After the above-mixed liquor was incubated at 25° C. for 60 minutes, 5 μL of activated SHP2 kinase solution was transferred with a pipettor to the compound wells and the Max control wells (Corning, #4514) of the plate. Then 5 μL of 1× kinase buffer was transferred to the Min control wells. The plate was centrifuged at 1000 rpm for 30 seconds, sealed, and incubated in a 25° C. constant-temperature incubator for 30 minutes. A substrate solution of DiFMUP (#D6567, Invitrogen™) was prepared with 1× kinase buffer, and its concentration should be 2 times as the final concentration of the assay (DiFMUP final concentration: 10 μM). 5 μL of the prepared substrate solution was transferred with an electric pipettor into each well of the ELISA plate to start the reaction. The plate was centrifuged at 1000 rpm for 30 seconds, sealed, and incubated in a 25° C. constant-temperature incubator for 60 minutes. Read the plate at the excitation/emission wavelength of 358/455 nm after the ELISA plate was placed on the Spark machine.
The RLU values were collected from Spark and the inhibition rate was calculated with the RLU values. Inhibition rate=(maximum value-sample RLU)/(maximum value-minimum value)*100. “Minimum value” was referred to the RLU of the enzyme-free control, and “maximum value” was referred to the RLU of the DMSO control. The data were fit by using the XLFit Excel module (version 5.4.0.8) to obtain IC50 values, and the results are shown in Table 1.

[3] = Mouse pharmacokinetic assay (intragastric administration, plasma HPLC-MS/MS); assay type: in vivo; conditions: ICR mice
Procedure: ICR mice were intragastrically administered with the compound at 10 mg/kg or 20 mg/kg. At different time points (0.25 h, 0.5 h, 1 h, 2 h, 4 h, 8 h, 24 h) after administration, the mice blood was collected from the orbit. The collected whole blood was anticoagulated with heparin sodium and centrifuged at 3000 g to obtain mouse plasma samples. Methanol was added to precipitate proteins. The drug concentration in the mouse plasma after administration was determined by the HPLC-MS/MS method. A drug concentration-time curve was plotted and the pharmacokinetic parameters were calculated. The pharmacokinetic behavior in mice after the compound administration was described by means of non-compartment model statistical moment parameters.

[4] = target: hERG channel (Homo sapiens (Human), UniProt Q12809); experiment: hERG assay, manual whole-cell patch clamp in CHO-K1 cell line stably expressing the hERG channel; assay type: cell-based
Sequence of hERG channel (Q12809 whole entry): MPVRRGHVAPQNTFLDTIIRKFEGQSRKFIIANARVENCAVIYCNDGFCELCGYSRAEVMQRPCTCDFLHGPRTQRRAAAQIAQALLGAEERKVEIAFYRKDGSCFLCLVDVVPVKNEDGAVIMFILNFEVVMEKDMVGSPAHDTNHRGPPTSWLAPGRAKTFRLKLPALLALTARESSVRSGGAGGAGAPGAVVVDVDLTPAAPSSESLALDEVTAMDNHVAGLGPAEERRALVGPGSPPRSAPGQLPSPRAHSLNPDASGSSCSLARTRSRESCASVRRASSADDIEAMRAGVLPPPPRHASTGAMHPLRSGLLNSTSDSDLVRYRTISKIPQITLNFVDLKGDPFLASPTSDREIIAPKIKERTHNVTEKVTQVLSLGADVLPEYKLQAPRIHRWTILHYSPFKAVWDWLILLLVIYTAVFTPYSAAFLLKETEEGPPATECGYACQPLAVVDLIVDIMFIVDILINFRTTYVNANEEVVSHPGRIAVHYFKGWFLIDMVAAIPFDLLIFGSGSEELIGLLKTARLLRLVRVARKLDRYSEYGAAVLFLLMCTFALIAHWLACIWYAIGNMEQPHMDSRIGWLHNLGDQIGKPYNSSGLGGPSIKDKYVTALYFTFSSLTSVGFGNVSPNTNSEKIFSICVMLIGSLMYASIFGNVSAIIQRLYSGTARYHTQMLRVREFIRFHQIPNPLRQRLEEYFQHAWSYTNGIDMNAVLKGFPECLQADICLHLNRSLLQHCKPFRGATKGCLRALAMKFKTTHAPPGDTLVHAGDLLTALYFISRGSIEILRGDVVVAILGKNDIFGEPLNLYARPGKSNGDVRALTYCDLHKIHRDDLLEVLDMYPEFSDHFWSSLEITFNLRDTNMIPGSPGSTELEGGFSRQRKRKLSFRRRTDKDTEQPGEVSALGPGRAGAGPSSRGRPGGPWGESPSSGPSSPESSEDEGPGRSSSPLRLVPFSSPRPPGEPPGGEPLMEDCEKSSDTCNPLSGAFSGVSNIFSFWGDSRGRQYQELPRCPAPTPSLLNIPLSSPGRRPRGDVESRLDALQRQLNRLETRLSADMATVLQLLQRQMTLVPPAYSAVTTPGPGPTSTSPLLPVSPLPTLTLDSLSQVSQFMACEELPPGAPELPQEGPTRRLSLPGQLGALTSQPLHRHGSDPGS
Procedure: This assay included the following aspects: • A manual patch clamp technique was used to record the hERG current in the CHO-K1 cell line stably expressing the hERG channel; • The inhibition rate at each concentration was calculated based on the hERG tail current; • Each compound was tested at 5 concentrations to calculate the IC50 value; • Three cells were tested for each concentration; • One positive control drug was set.
HERG currents were recorded using the whole-cell patch-clamp technique. The cell suspension was added to the cell tank and placed on the upright microscope stage. After the cell adherence, the cells were perfused with extracellular fluid at a flow rate of 1-2 mL/min. The glass microelectrode was drawn in two steps by a micropipette puller, and its resistance value in water was 2-5 MΩ. After establishing the whole-cell recording, the clamp potential was maintained at −80 mV. The hERG tail current was elicited by applying a depolarizing voltage to +60 mV upon the voltage stimulation and then repolarizing to −50 mV. All recordings were made after the current stabilization. Extracellular perfusion administration started from a low concentration, and each concentration lasted for 5-10 minutes until the current was stable, and then proceeded to the next concentration.
The half inhibitory concentration (ICSO) of the test compound was derived from the best fit of the Logistic equation.

[5] = system: human lung adenocarcinoma NCI-H441 cells; experiment: In vitro inhibitory effect on the proliferation of NCI-H441 cells (3D CellTiter Glo, 5 days); assay type: cell-based; conditions: 120 h, 3D cell viability
Procedure: The human lung adenocarcinoma cell NCI-H441 used in the assay was purchased from ATCC. The complete culture medium required for cell culture was RPMI 1640 Medium (GIBCO Company), which was supplemented with 10% fetal bovine serum (GIBCO Company). Cells were cultured in a 37° C., 5% CO2 incubator. The reagents used in the assay included dimethyl sulfoxide (purchased from Sigma), a 3D Cell Viability assay kit (purchased from Promega), and the control substance TW-45 used in the assay was obtained homemade. The test substance was sealed and stored at 4° C.
Dimethyl sulfoxide was used as the solvent to fully dissolve the test substance and prepare a stock solution with a concentration of 1×10^−2 mol/L. The stock solution was stored at −20° C. A complete culture medium was used as the diluent, and the test substance was diluted to different concentrations in gradient for later use (the final test concentration was 10000, 3333, 1111, 370, 123, 41, 13.7, 4.5, 1.5, and 0.5 nM). Cells were cultured in a 37° C., 5% CO2 incubator for 5 days. Detection was made on the fifth day. 30 μL of reagent (Celltiter Glo Assay Kit-3D) was added to each well and the plate was shaken on a plate oscillator (protected from light) for 30 minutes. The plate was incubated at room temperature (protected from light) for 120 minutes. Chemiluminescence values were recorded with a Multiplate reader. […]

[6] = Mouse tolerance assay (once daily for 7 consecutive days); assay type: in vivo; conditions: female ICR mice
Procedure: • Assay animals: ICR mice, female, 5 weeks old • Solvent: 2% DMSO+98% (0.5% MC), treated by sufficient vortex and sonicated to obtain a uniform suspension • Assay method: Female ICR mice were divided into 4 groups according to weight balance, with 5 mice in each group. The administration doses were 50 mg/kg and 200 mg/kg respectively. The compound was administrated once daily for 7 consecutive days.

[7] = mouse, po, intragastric, 20 mg/kg, plasma

Compound | IC50 [1] [nM] | IC50 [2] [nM] | further results
CC(=O)c1nc(Sc2cccc(-c3ncco3)c2Cl)c(N)nc1N1CCC2(CC1)Oc1ccccc1[C@H]2N [Compound 1, (R)-1-(5-amino-3-(3-amino-3H-spiro[benzofuran-2,4′-piperidine]-1′-yl)-6-((2-chloro-3-(oxazole-2-yl)phenyl)sulfanyl)pyrazine-2-yl)ethanone] | ≤ 20 | ≤ 20 | exposure and absorption in mice (in words) ([3]; intragastric administration): relatively high exposure in mice and both were well absorbed in vivo; Cmax [3, 7]: 2490 ng/mL; Tmax [3, 7]: 4 h; AUC(0-t) ([3]; mouse, po, intragastric, 20 mg/kg, plasma, read-out: AUC0-24 h): 16900 ng·h/mL; IC50 ([4]; CHO-K1 stable cell line, hERG tail current, 5 concentrations): > 10000 nM; inhibitory effect on the hERG channel (in words) ([4]; within the detection concentration range of the assay): no obvious inhibitory effect on the hERG channel
CC(=O)c1nc(Sc2cccc(-c3ncco3)c2Cl)cnc1N1CCC2(CC1)Oc1ccccc1[C@H]2N [Compound 8] | ≤ 20 | ≤ 20 | –
COC(=O)c1nc(Sc2cccc(-c3ncco3)c2Cl)c(N)nc1N1CCC2(CC1)Oc1ccccc1[C@H]2N [Compound 16, (R)-5-amino-3-(3-amino-3H-spiro[benzofuran-2,4′-piperidine]-1′-yl)-6-((2-chloro-3-(oxazole-2-yl)phenyl)sulfanyl)pyrazine-2-carboxylic acid methyl ester] | ≤ 20 | ≤ 20 | –
COC(=O)c1nc(Sc2cccc(-c3ccn(C)n3)c2Cl)cnc1N1CCC2(CC1)Cc1ccccc1[C@H]2N [Compound 19] | ≤ 20 | – | –
Nc1nc(N2CCC3(CC2)Oc2ccccc2[C@H]3N)c(C2COC2)nc1Sc1cccc(-c2ncco2)c1Cl [Compound 21, (R)-1′-(6-amino-5-((2-chloro-3-(oxazole-2-yl)phenyl)sulfanyl)-3-(oxetane-3-yl)pyrazine-2-yl)-3H-spiro[benzofuran-2,4′-piperidine]-3-amine] | – | ≤ 20 | –
C=Cc1nc(Sc2cccc(-c3ncco3)c2Cl)c(N)nc1N1CCC2(CC1)Oc1ccccc1[C@H]2N [Compound 22] | – | ≤ 20 | –
Nc1nc(N2CCC3(CC2)Oc2ccccc2[C@H]3N)cnc1Sc1ccnc(N)c1Cl [TW-45, reference compound] | – | – | days of administration after which death appeared ([6]; 200 mg/kg once daily): 4 days; death by the 7th day (in words) ([6]; 200 mg/kg once daily): all animals of the positive control had died by the 7th day; MTD at 7 days ([6]; mouse, in vivo, once daily for 7 days, read-out: mouse maximum tolerated dose MTD): < 200 mg/kg

Further lines, with some results ahead:

IC50 [1] [nM] | IC50 [2] [nM] | Compound | further results
– | ≤ 20 | Nc1nc(N2CCC3(CC2)Oc2ccccc2[C@H]3N)c(F)nc1Sc1cccc(-c2ncco2)c1Cl [Compound 23, (R)-1′-(6-amino-5-((2-chloro-3-(oxazole-2-yl)phenyl)sulfanyl)-3-fluoropyrazine-2-yl)-3H-spiro[benzofuran-2,4′-piperidine]-3-amine] | –
– | ≤ 20 | CC(=O)c1nc(Sc2ccnc(-c3ncco3)n2)c(N)nc1N1CCC2(CC1)Oc1ccccc1[C@H]2N [Compound 24, (R)-1-(5-amino-3-(3-amino-3H-spiro[benzofuran-2,4′-piperidine]-1′-yl)-6-((2-(oxazole-2-yl)pyrimidine-4-yl)sulfanyl)pyrazine-2-yl)ethanone] | –
≤ 20 | ≤ 20 | [2H][C@@]1(N)c2ccccc2OC12CCN(c1nc(N)c(Sc3ccnc(N)n3)nc1C(C)=O)CC2 [Compound 57] | –
– | ≤ 20 | COC(=O)c1nc(Sc2ccnc(N)c2Cl)c(N)nc1N1CCC2(CC1)Oc1ccccc1[C@H]2N [Compound 58] | –
≤ 20 | ≤ 20 | [2H][C@@]1(N)c2ccccc2OC12CCN(c1nc(N)c(Sc3ccnc(N)c3Cl)nc1C(=O)OC)CC2 [Compound 59] | –
– | ≤ 20 | [2H][C@@]1(N)c2ccccc2OC12CCN(c1nc(N)c(Sc3cccc(-c4ncco4)c3Cl)nc1C(C)=O)CC2 [Compound 60] | –
– | ≤ 20 | CC(=O)c1nc(Sc2ccnc(N)c2Cl)c(N)nc1N1CCC2(CC1)Oc1ccccc1[C@H]2N [Compound 62] | IC50 [5]: 20 to 50 nM
